Data: article PMC10229121, “An acetylation-mediated chromatin switch governs H3K4 methylation read-write capability” (eLife, 2023)

Tested on: histone H3.1 modifications in HEK-293 cells
Experiment: Middle-down mass spectrometry of histone H3.1 from HEK-293 cells ± KDAC inhibition (H3K9 methylation, {K9ac, K14ac, K18ac} proteoforms, H3K4 methylation)
Type: cell-based
Settings: for 3ac including {K9ac, K14ac, K18ac} / 4ac including {K9ac, K14ac, K18ac} / 5ac including {K9ac, K14ac, K18ac}: HEK-293, H3.1 butyrate treated; for H3K9me0 / H3K9me1 / H3K9me2 / H3K9me3: HEK-293, butyrate treated
Procedure: Figure 3. […] (A) Occupancy of H3K4 methyl states (me0-1-2-3) within each H3 acetyl state (0ac to 5ac) in asynchronous MCF-7 cells. (B) Occupancy of H3K4 methyl states within each H3 acetyl state after butyrate treatment (60 min). Asterisks represent p-values <0.05. […] Each spectrum is an average of MS2 spectra of the indicated H3 acetyl states after 60 min of butyrate treatment. K4 occupancy stoichiometry is directly correlated with H3 acetylation state and the targeted MS approach provides excellent signal-to-noise for confident quantitation. […] See Methods for further information on data acquisition and analysis. All data were collected in biological triplicate with error bars representing SEM. Figure 3—figure supplement 1. H3 acetylation states with sodium butyrate treatment. (A - B) Each acetyl state of acid-extracted H3 from 0ac to 5ac is represented as a percent of total H3 before/after 60 min treatment of asynchronous MCF-7 cells with 5 mM sodium butyrate. (C) Occupancy of H3K4 methyl states (me0-1-2-3) within each H3 acetyl state (0ac to 5ac) in asynchronous HEK-293 cells. (D) Occupancy of H3K4 methyl states within each H3 acetyl state after butyrate treatment (120 min) in asynchronous HEK-293 cells. (E) Percentage of (K9ac, K14ac, K18ac) proteoforms within 3ac to 5ac acetyl states of H3.1 ± butyrate treatment in HEK-293 cells. N=3 and error bars are SEM for all data. [drawing 3]
MCF-7 breast cancer cells (ATCC HTB-22) were grown in MEM (Gibco) supplemented with 10% fetal bovine serum (VWR), 100 I.U. penicillin, 100 µg/mL streptomycin (Corning), 0.01 mg/mL human recombinant insulin (Gibco), and 5 µg/mL plasmocin (Invivogen) at 37 °C and 5% CO2. HEK-293 (ATCC CRL-1573) was grown in DMEM (Gibco) supplemented with 10% fetal bovine serum (Corning), 100 I.U. penicillin, and 100 µg/mL streptomycin (Gibco) at 37 °C and 5% CO2. Both cell lines were authenticated via STR profiling and confirmed to be Mycoplasma negative.
For mass spectrometric (MS) analysis ± KDAC inhibition, cells were cultured in 150 mm dishes to ~80% confluence and treated with 5 mM sodium butyrate (or equivalent volume of water) in triplicate for 0, 10, 20, 30, 60, 120 min. […] Histones were acid extracted after nuclei isolation as described ([Holt et al., 2021]). Isolated histones were resuspended in 85 µL 5% acetonitrile, 0.2% trifluoroacetic acid (TFA), and resolved by offline high-performance liquid chromatography (HPLC) as described ([Holt et al., 2021]). […] After chromatographic separation and fraction collection, histone H3.1 was selected, diluted in 100 mM ammonium acetate (pH = 4), and digested with Glu-C protease (Roche) at 10:1 protein:enzyme for 1 hr at room temperature prior to mass spectrometric analysis.
The digested samples were diluted to 2 µg/µL. Online HPLC was performed on a U3000 RSLC nano Pro-flow system using a C3 column (Zorbax 300 SB-C3, 5 µm; Agilent). Samples were maintained at 4 °C and 1 µL injected for each analysis using a microliter pickup. […] The column eluant was introduced into an Orbitrap Fusion Lumos mass spectrometer (Thermo Fisher) by nano-electrospray ionization. A static spray voltage of 1900 V and an ion transfer tube temperature of 320 °C were set for the source.
A Fusion Lumos mass spectrometer was used to generate MS data. The 9th charge state of histone H3 was targeted for analysis. MS1 analysis was acquired in the orbitrap with a normal mass range and a 60 k resolution setting in positive ion mode. An Automatic Gain Control (AGC) target of 5.0E5 with a 200 ms maximum injection time, three microscans, and a scan range of 585–640 m/z was used to identify desired ions for fragmentation. MS2 acquisition was performed in both orbitrap and ion trap modes. Both modes used electron transfer dissociation (ETD), a reaction time of 18ms, and an injection time of 200 ms. […]

CCCC(=O)O [sodium butyrate] was tested, and the “3ac including {K9ac, K14ac, K18ac}” value was 1.6743 Percentage, the “4ac including {K9ac, K14ac, K18ac}” value was 16.6357 Percentage and the “5ac including {K9ac, K14ac, K18ac}” value was 100 Percentage. For the same compound, the “3ac including {K9ac, K14ac, K18ac}” value (column 1 of 3) was 1.334 Percentage, the “4ac including {K9ac, K14ac, K18ac}” value (column 1 of 3) was 17.3973 Percentage and the “5ac including {K9ac, K14ac, K18ac}” value (column 1 of 3) was 100 Percentage. For the same compound, the “3ac including {K9ac, K14ac, K18ac}” value (column 2 of 3) was 1.24 Percentage, the “4ac including {K9ac, K14ac, K18ac}” value (column 2 of 3) was 17.858 Percentage and the “5ac including {K9ac, K14ac, K18ac}” value (column 2 of 3) was 100 Percentage. It also gave an H3K9me0 (0ac) of 48.8895 Percentage, an H3K9me1 (0ac) of 7.899 Percentage and an H3K9me2 (0ac) of 29.443 Percentage. The H3K9me3 (0ac) was 13.7682 Percentage, the H3K9me0 (0ac, column 1 of 3) was 54.4348 Percentage and the H3K9me1 (0ac, column 1 of 3) was 4.2113 Percentage. It also gave an H3K9me2 (0ac, column 1 of 3) of 27.4814 Percentage, an H3K9me3 (0ac, column 1 of 3) of 13.8725 Percentage and an H3K9me0 (0ac, column 2 of 3) of 51.9841 Percentage. For the same compound, the H3K9me1 (0ac, column 2 of 3) was 5.137 Percentage, the H3K9me2 (0ac, column 2 of 3) was 26.9782 Percentage and the H3K9me3 (0ac, column 2 of 3) was 15.9004 Percentage. The H3K9me0 (1ac) was 27.5434 Percentage, the H3K9me1 (1ac) was 15.9623 Percentage and the H3K9me2 (1ac) was 38.0917 Percentage. It also gave an H3K9me3 (1ac) of 17.0037 Percentage, an H3K9me0 (1ac, column 1 of 3) of 28.711 Percentage and an H3K9me1 (1ac, column 1 of 3) of 14.4169 Percentage. The H3K9me2 (1ac, column 1 of 3) was 39.3301 Percentage, the H3K9me3 (1ac, column 1 of 3) was 15.8799 Percentage and the H3K9me0 (1ac, column 2 of 3) was 28.8744 Percentage. The H3K9me1 (1ac, column 2 of 3) was 14.4284 Percentage, the H3K9me2 (1ac, column 2 of 3) was 38.0038 Percentage and the H3K9me3 (1ac, column 2 of 3) was 16.6818 Percentage. For the same compound, the H3K9me0 (2ac) was 27.9258 Percentage, the H3K9me1 (2ac) was 21.3235 Percentage and the H3K9me2 (2ac) was 37.139 Percentage. It also gave an H3K9me3 (2ac) of 9.818 Percentage, an H3K9me0 (2ac, column 1 of 3) of 28.9582 Percentage and an H3K9me1 (2ac, column 1 of 3) of 21.0866 Percentage. For the same compound, the H3K9me2 (2ac, column 1 of 3) was 35.8684 Percentage, the H3K9me3 (2ac, column 1 of 3) was 10.0575 Percentage and the H3K9me0 (2ac, column 2 of 3) was 26.6449 Percentage. The H3K9me1 (2ac, column 2 of 3) was 22.0491 Percentage, the H3K9me2 (2ac, column 2 of 3) was 35.8906 Percentage and the H3K9me3 (2ac, column 2 of 3) was 10.993 Percentage. The H3K9me0 (3ac) was 21.6496 Percentage, the H3K9me1 (3ac) was 12.8486 Percentage and the H3K9me2 (3ac) was 25.9132 Percentage. The H3K9me3 (3ac) was 9.297 Percentage, the H3K9me0 (3ac, column 1 of 3) was 21.2886 Percentage and the H3K9me1 (3ac, column 1 of 3) was 12.9304 Percentage. For the same compound, the H3K9me2 (3ac, column 1 of 3) was 26.508 Percentage, the H3K9me3 (3ac, column 1 of 3) was 10.2618 Percentage and the H3K9me0 (3ac, column 2 of 3) was 21.713 Percentage. The H3K9me1 (3ac, column 2 of 3) was 11.1466 Percentage, the H3K9me2 (3ac, column 2 of 3) was 27.8034 Percentage and the H3K9me3 (3ac, column 2 of 3) was 10.4504 Percentage. It also gave an H3K9me0 (4ac) of 4.833 Percentage, an H3K9me1 (4ac) of 7.36 Percentage and an H3K9me2 (4ac) of 8.881 Percentage. It also gave an H3K9me3 (4ac) of 1.604 Percentage, an H3K9me0 (4ac, column 1 of 3) of 5.043 Percentage and an H3K9me1 (4ac, column 1 of 3) of 6.813 Percentage. It also gave an H3K9me2 (4ac, column 1 of 3) of 10.053 Percentage, an H3K9me3 (4ac, column 1 of 3) of 3.009 Percentage and an H3K9me0 (4ac, column 2 of 3) of 4.13 Percentage. For the same compound, the H3K9me1 (4ac, column 2 of 3) was 7.856 Percentage, the H3K9me2 (4ac, column 2 of 3) was 9.753 Percentage and the H3K9me3 (4ac, column 2 of 3) was 2.246 Percentage. It also gave an H3K9me0 (5ac) of 0 Percentage, an H3K9me1 (5ac) of 0 Percentage and an H3K9me2 (5ac) of 0 Percentage. For the same compound, the H3K9me3 (5ac) was 0 Percentage, the H3K9me0 (5ac, column 1 of 3) was 0 Percentage and the H3K9me1 (5ac, column 1 of 3) was 0 Percentage. It also gave an H3K9me2 (5ac, column 1 of 3) of 0 Percentage, an H3K9me3 (5ac, column 1 of 3) of 0 Percentage and an H3K9me0 (5ac, column 2 of 3) of 0 Percentage. The H3K9me1 (5ac, column 2 of 3) was 0 Percentage, the H3K9me2 (5ac, column 2 of 3) was 0 Percentage and the H3K9me3 (5ac, column 2 of 3) was 0 Percentage. For the same compound, the “H3K9me3 on hyperacetylated H3 proteoforms, in words” value (HEK-293, ± butyrate) was “H3K9me3 did not accumulate with hyperacetylated H3 proteoforms” and the “{K9ac, K14ac, K18ac} in 5ac proteoforms, in words” value (HEK-293, ± butyrate) was “all penta-acetylated (5ac) H3 proteoforms consisted of acetylation at H3K9, K14, and K18 at minimum”.
